Where two headings read alike, the source gives them in different places. Where only a bound is given, the exact number is not on record here.

This note sets out measurements from paper PMC7011920, “Synthesis and biological evaluation of stilbene derivatives coupled to NO donors as potential antidiabetic agents” (Journal of Enzyme Inhibition and Medicinal Chemistry, 2018).

For data set [1], the system named is STZ-induced diabetic mice. Briefly: Acute hypoglycaemic assay in STZ-diabetic mice. The data set is classed as in vivo. Conditions: for Blood glucose concentration: mean ± SEM, six mice. How it is done:
The antidiabetic activity was determined by using a standard method. […] Especially, compound 7c caused significant decreases in blood glucose levels when compared with vehicle-treated groups (p < .05). […] In STZ-diabetic animals, the hypoglycaemic effect of pterostilbene (40 mg/kg of bw) was larger than 50% since 5 h and persisted throughout the experiment. Target compound 7c (40 mg/kg of bw) caused significant decreases in blood glucose levels compared with pterostilbene (40 mg/kg of bw).
Type II DM was induced in mice by a single intraperitoneal injection of freshly prepared STZ (Sigma Aldrich, St. Louis, MO) dissolved in 0.1 M citrate buffer, pH 4.5, in a […] of 120 mg/kg of bw. After seven days of STZ administration, blood glucose levels of each mouse were determined. Mice with blood glucose levels higher than 11 mM were considered diabetic and were included in the study.
STZ-induced diabetic mice and normal mice were placed in single cages with wire-net floors and deprived of food for 12 h before experimentation but allowed free access to tap water throughout. The compounds (at the doses of 10, 40, and 100 mg/kg of bw) were suspended in 0.05% Tween-80 in saline solution. Glibenclamide (10 mg/kg of bw) was suspended in the same vehicle. The target compounds were freshly prepared immediately before experimentation and administered by the intragastrical route at the doses of 10 ml/kg of bw. Control mice received only the vehicle (0.05% Tween-80 in saline solution) by the same route. Blood glucose levels were measured at 0, 1.5, 3, 5, 7, and 9 h after drugs administration.

Data set [2] has as its system AGEs (advanced glycation end products) formation. The data set is described as follows: In vitro inhibitory activity of AGEs formation (bovine serum albumin/glucose, fluorescence). Conditions: 50% inhibition of fluorescence intensity of AGE relative to 0.1% DMSO; mean ± SD (n = 3). As for the experimental part:
Advanced glycation end products are a group of complex and heterogeneous compounds, which are implicated in a number of biochemical abnormalities associated with diabetes[21]^,[22]. Therefore, the discovery of AGEs inhibitors would be beneficial to the prevention and treatment of diabetic or other pathogenic complications.
To prepare the AGE reaction solution, 10 mg/ml of bovine serum albumin in 50 mM PBS (pH 7.4) was added to 0.2 M glucose, and 0.02% sodium azide was added to prevent bacterial growth. The reaction mixture (3 ml) was then mixed with various concentrations (0.5–1000 µg/ml) of the target compounds (1 ml) dissolved in DMSO. After incubating at 37 °C for 14 d, the fluorescence intensity of AGE was determined by a fluorospectrophotometer (PE, Cincinnati, OH) with excitation and emission wavelengths at 350 nm and 420 nm[30], respectively. All experiments were run in triplicate. Aminoguanidine hydrochloride was used as a reference compound. The inhibition rate of AGEs formation and the IC50 value of each sample were calculated according to the formula. Inhibition rate %={[(AC−AB)−(AS−ASB)]/(AC−AB)}×100% where AC is the absorbance of control group (1.0 ml glucose +1.0 ml bovine serum albumin +1.0 ml sodium azide +1.0 ml DMSO); AB is the absorbance of blank group (1.0 ml PBS +1.0 ml bovine serum albumin +1.0 ml sodium azide +1.0 ml DMSO); AS is the absorbance of sample group (1.0 ml glucose +1.0 ml bovine serum albumin +1.0 ml sodium azide +1.0 ml target compound solution or aminoguanidine hydrochloride solution); ASB is the absorbance of sample blank group (1.0 ml PBS +1.0 ml bovine serum albumin +1.0 ml sodium azide +1.0 ml target compound solution or aminoguanidine hydrochloride solution).

For data set [3], the target named is T1, aldose reductase (ALR2) (Mus musculus, UniProt P45376).
T1 construct: After homogenisation and centrifugation, the crude ALR2 from mice was obtained; from tissue
The data set is described as follows: In vitro ALR2 inhibitory activity (crude enzyme, NADPH decrease at 340 nm). In kind it is biochemical, mice. As for the experimental part: The enzyme aldose reductase (ALR2) is a member of the aldo–keto reductase superfamily. The development and progression of chronic diabetic complications are confirmed to be quite related to the activation and/or over expression of ALR2[25]. Therefore, ALR2 inhibitors may play a critical role in preventing or treating these complications.
After homogenisation and centrifugation, the crude ALR2 from mice was obtained. The inhibitory activity of the compounds on ALR2 was carried out using crude enzyme and different concentrations of the compounds (1–1000 µg/ml) in 200 mM PBS (pH 6.2) containing 0.10 mM NADPH. The reaction was initiated by addition of glyceraldehyde and the decrease in the optical density of NADPH at 340 nm was recorded for 3 min. All experiments were run in triplicate. IC50 of the compounds was calculated. The flavonoid quercetin was used as a reference in the ALR2 assay.

Data set [4] deals with T2, α-Glucosidase (Saccharomyces cerevisiae, UniProt P53341).
T2 construct: purchased Sigma Aldrich G0660-750UN
T2 sequence (P53341 whole entry): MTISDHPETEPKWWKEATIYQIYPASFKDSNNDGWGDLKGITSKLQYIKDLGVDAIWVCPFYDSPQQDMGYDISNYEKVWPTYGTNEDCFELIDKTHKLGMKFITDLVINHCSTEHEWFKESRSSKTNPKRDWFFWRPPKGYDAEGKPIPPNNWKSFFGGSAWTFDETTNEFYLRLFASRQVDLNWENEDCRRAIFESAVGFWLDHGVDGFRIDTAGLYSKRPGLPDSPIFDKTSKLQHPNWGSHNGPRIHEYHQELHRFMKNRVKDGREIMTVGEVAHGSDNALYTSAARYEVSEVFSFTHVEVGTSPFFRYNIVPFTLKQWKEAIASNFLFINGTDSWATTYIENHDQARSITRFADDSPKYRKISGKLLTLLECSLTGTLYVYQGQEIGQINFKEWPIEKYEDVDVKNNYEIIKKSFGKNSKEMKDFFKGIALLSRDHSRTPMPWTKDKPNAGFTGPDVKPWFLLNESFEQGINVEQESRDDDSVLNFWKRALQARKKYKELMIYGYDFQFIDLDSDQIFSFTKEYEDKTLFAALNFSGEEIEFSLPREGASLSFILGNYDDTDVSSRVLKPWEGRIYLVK
The data set is described as follows: biochemical. As for the experimental part: α-Glucosidases, enzymes anchored in the brush border of the small intestine, are responsible for catalysing the hydrolysis of carbohydrates.
α-Glucosidase (G0660-750UN, Sigma Aldrich, St. Louis, MO) and 4-nitrophenyl α-D-glucopyranoside (PNPG, Macklin) were dissolved in phosphate buffer (pH 6.8, 100 mM), and the test compounds were dissolved in DMSO solution. The experiment was divided into blank group, control group, sample blank group and sample group. The reagents were loaded in 96-well plates at the dose of the table (Table 3). The solution was bathed in 37 °C water for 10 min, after the end, enzyme solution was added. After reaction at 37 °C for 20 min, 70 µL Na2CO3 solution ([…]) was added to stop the reaction. All experiments were run in triplicate. […] Since PNPG can produce glucose and p-nitrophenol (PNP) under the action of α-glucosidase, PNP has the greatest absorption at 405 nm. The absorbance was determined by the microplate reader, and the inhibition rate of α-glucosidase and the IC50 value of each sample were calculated according to the formula. Inhibition rate %={[(AC−AB)−(AS−ASB)]/(AC−AB)}×100% where AC is the absorbance of control group; AB is the absorbance of blank group; AS is the absorbance of sample group; ASB is the absorbance of sample blank group.

[5] abbreviates: dose 40 mg/kg per os, 1.5 h vs 0 h.
Where [6] appears, read: dose 40 mg/kg per os, 3 h vs 0 h.
The mark [7] stands for this setting: dose 40 mg/kg per os, 5 h vs 0 h.
Where [8] appears, read: dose 40 mg/kg per os, 7 h vs 0 h.
Where [9] appears, read: dose 40 mg/kg per os, 9 h vs 0 h.
Where [10] appears, read: read-out: IC50 value, ALR2 inhibitory activity.
[11] abbreviates: read-out: IC50 value, α-Glucosidase inhibitory activity.

`COc1ccc(Cl)cc1C(=O)NCCc1ccc(S(=O)(=O)NC(=O)NC2CCCCC2)cc1` [Glibenclamide, reference compound]: the Blood glucose concentration in data set [1] (dose 10 mg/kg per os, 0 h) worked out at 20.2 ± 5.4 mM; in data set [1] (dose 10 mg/kg per os, 1.5 h) it was 11.6 ± 4.9 mM; in data set [1] (dose 10 mg/kg per os, 3 h) it was 7.6 ± 3.9 mM; in data set [1] (dose 10 mg/kg per os, 5 h), 6.1 ± 3.6 mM; in data set [1] (dose 10 mg/kg per os, 7 h) it was 5.7 ± 3.6 mM; in data set [1] (dose 10 mg/kg per os, 9 h), 5.6 ± 3.6 mM. The “% Variation of glycaemia” value in data set [1] (dose 10 mg/kg per os, 1.5 h vs 0 h) was “–42.63%”; in data set [1] (dose 10 mg/kg per os, 3 h vs 0 h), “–62.32%”; in data set [1] (dose 10 mg/kg per os, 5 h vs 0 h), “–69.58%”; in data set [1] (dose 10 mg/kg per os, 7 h vs 0 h), “–71.84%”; in data set [1] (dose 10 mg/kg per os, 9 h vs 0 h), “–72.11%”.

On to `N=C(N)NN` [AG, amino guanidine, reference compound], for which, in data set [2], the IC50 (in general, the concentration needed to halve the response being measured) amounted to 283 ± 8.52 µM.

`O=c1c(O)c(-c2ccc(O)c(O)c2)oc2cc(O)cc(O)c12` [Quercetin, reference compound] had an IC50 in data set [3] of 3.71 ± 0.29 µM.

Consider `COc1cc(/C=C/c2ccc(O)cc2)cc(OC)c1` [Pterostilbene, reference compound], for which the IC50 in data set [2] was 1.99 ± 0.51 µM; in data set [3] (setting [10]), above 1000 µM; in data set [4] (setting [11]), above 1000 µM. Besides, the hypoglycaemic effect in data set [1] (40 mg/kg of bw, STZ-diabetic animals, since 5 h and throughout the experiment) is recorded as above 50%. Moreover, the Blood glucose concentration in data set [1] (dose 40 mg/kg per os, 0 h) came out at 17.2 ± 7.0 mM; in data set [1] (dose 40 mg/kg per os, 1.5 h), 12.1 ± 6.4 mM; in data set [1] (dose 40 mg/kg per os, 3 h) it was 10.2 ± 6.2 mM; in data set [1] (dose 40 mg/kg per os, 5 h) it was 8.4 ± 5.6 mM; in data set [1] (dose 40 mg/kg per os, 7 h), 7.7 ± 5.3 mM; in data set [1] (dose 40 mg/kg per os, 9 h) it was 6.9 ± 4.3 mM. Further, the “% Variation of glycaemia” value is recorded as “–29.91%” in data set [1] (setting [5]); “–40.89%” in data set [1] (setting [6]); “–51.42%” in data set [1] (setting [7]); “–55.36%” in data set [1] (setting [8]); “–59.82%” in data set [1] (setting [9]).

Take `COc1cc(/C=C/c2ccc(OCCCCO[N+](=O)[O-])cc2)cc(OC)c1` [3b]: the melting point (commonly the temperature of the solid-liquid transition) lay within 110.9 to 111.3 °C. In data set [2], this compound yielded an IC50 of 2.39 ± 0.11 µM. The half-maximal inhibitory concentration (IC50) in data set [3] (setting [10]) is above 1000 µM. In addition, the concentration for half-maximal inhibition (IC50) in data set [4] (setting [11]) was above 1000 µM.

For the compound `COc1cc(/C=C/c2ccc(OCCO[N+](=O)[O-])cc2)cc(OC)c1` [3a, O4′-Nitrooxyethyl pterostilbene], the melting point lay within 142.2 to 143.2 °C. In data set [2], this compound registered an IC50 of 2.9 ± 0.09 µM. For the same compound, the IC50 in data set [3] (setting [10]) is above 1000 µM. Also, the IC50 in data set [4] (setting [11]) was above 1000 µM.

Regarding `Oc1ccc(/C=C/c2cc(O)cc(O)c2)cc1` [Resveratrol, reference compound], the results for the IC50 in data set [2], in data set [3] (setting [10]) and in data set [4] were 0.83 ± 0.21 µM, 17 ± 0.31 µM and 242 ± 17 µM, respectively. In addition, the Blood glucose concentration was 20.0 ± 2.6 mM in data set [1] (dose 40 mg/kg per os, 0 h); 16.3 ± 2.9 mM in data set [1] (dose 40 mg/kg per os, 1.5 h); 14.0 ± 2.0 mM in data set [1] (dose 40 mg/kg per os, 3 h); 12.4 ± 2.1 mM in data set [1] (dose 40 mg/kg per os, 5 h); 11.2 ± 1.8 mM in data set [1] (dose 40 mg/kg per os, 7 h); 10.7 ± 1.4 mM in data set [1] (dose 40 mg/kg per os, 9 h). Besides, the “% Variation of glycaemia” value in data set [1] (setting [5]) is on record as “–18.42%”; in data set [1] (setting [6]), “–29.83%”; in data set [1] (setting [7]), “–38.08%”; in data set [1] (setting [8]), “–44.25%”; in data set [1] (setting [9]), “–46.33%”.
